Measured values as given in patent US6872716B2, “Antipsychotic sulfonamide-heterocycles, and methods of use thereof” (Sepracor, Inc., priority 2000, dated 2005).

Legend:
NMDA (PCP site) = experiment: NMDA receptor (PCP site) radioligand binding screen
Method: (§1) The NMDA receptor (PCP site) screen was conducted according to Goldman, M. E. et al. FEBS Letters 85, […]. The norepinephrine transporter screen was conducted according to Galli A et al. J. Exp. Biol. 1995, 198, 2197. The dopamine and serotonin transporter screens were conducted according to Gu, H. et al. J. Biol. Chem. 1994, 269(10), 7124. The sigma-1 screen was conducted according to de Costa B. R. FEBS 1989, 251, 53.

5-HT Transporter = 5-HT Transporter (UniProt P31645); experiment: serotonin transporter radioligand binding screen
Method: as §1

NE Transporter = NE Transporter (Homo sapiens, UniProt P23975); experiment: norepinephrine transporter radioligand binding screen
Chain of NE Transporter (P23975 whole entry): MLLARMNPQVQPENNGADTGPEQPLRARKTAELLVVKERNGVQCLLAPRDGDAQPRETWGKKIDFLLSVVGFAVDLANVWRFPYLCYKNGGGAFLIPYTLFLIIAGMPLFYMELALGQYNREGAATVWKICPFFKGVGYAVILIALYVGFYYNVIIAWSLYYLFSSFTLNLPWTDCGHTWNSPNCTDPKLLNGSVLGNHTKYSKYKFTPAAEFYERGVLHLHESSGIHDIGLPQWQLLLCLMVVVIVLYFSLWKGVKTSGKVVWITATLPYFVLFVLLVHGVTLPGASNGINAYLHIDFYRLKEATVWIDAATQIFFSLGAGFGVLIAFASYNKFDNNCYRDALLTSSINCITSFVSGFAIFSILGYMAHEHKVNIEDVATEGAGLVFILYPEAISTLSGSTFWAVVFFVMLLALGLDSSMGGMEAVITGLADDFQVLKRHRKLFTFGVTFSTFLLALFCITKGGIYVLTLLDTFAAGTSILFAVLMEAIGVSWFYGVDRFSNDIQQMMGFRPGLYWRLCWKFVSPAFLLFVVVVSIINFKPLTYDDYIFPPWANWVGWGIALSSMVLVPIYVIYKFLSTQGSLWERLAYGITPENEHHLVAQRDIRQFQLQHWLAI
Method: as §1

Sigma-1 (human) = Sigma-1 (human) (Homo sapiens, UniProt Q99720); experiment: sigma-1 radioligand binding screen
Chain of Sigma-1 (human) (Q99720 whole entry): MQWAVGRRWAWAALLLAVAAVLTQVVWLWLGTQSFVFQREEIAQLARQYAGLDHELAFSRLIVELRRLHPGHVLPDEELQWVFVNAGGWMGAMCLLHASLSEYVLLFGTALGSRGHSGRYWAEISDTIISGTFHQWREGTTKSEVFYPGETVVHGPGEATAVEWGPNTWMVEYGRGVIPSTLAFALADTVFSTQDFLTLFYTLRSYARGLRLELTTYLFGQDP
Method: as §1

rats [1] = experiment: learned helplessness test in rats; type: in vivo, rat; conditions: male Wistar rats; dose of 5 mg/kg i.p.
Method: The objective of this study was to evaluate the potential antidepressant activity of compounds in the learned helplessness test in rats.
Male rats (Wistar, Iffa Credo, St.-Germain/1″Arbresle, France) with initial weight of 180-200 g at the beginning of the experiments were housed 3 per cage under dark cycle of 12 h-12 h (light on at 7:00 a.m., off at 7:00 p.m.) at a room temperature of 21±1° C., with a minimum 50% humidity, for a minimum of 7 days before the experiments. They had free access to commercial rat chow (UFAC, Vigney, France, ref 811002) and tap water. The learned helplessness test included two phases over 5 days.
Phase 1: Helplessness induction
On day 1, inescapable electric foot-shocks were delivered individually to rats in a Plexiglas chamber (20 cm×16 cm×16 cm [1×w×h]) with a floor consisting of stainless-steel rods. A constant-current shocker (LETICA LI 100-26, Barcelona, Spain) was used to deliver inescapable shocks (0.8 m A scrambled DC current; 10 s duration every 20 s) over 60 minutes. “Non-helplessness” control rats were placed for 1 h in identical chambers without shocking.
Phase 2: Conditional Avoidance Training
Avoidance training in automated two-way shuttle-box (LETICA LI916, Barcelona, Spain) took place on day 3, 4, and 5. The shuttle-box is divided into two equal-sized chambers connected by a 10×10 cm opening. […]

[2] = tail flick model (in vivo analgesia); conditions: iv; administered intravenously
Method: (§2) The acetic acid writhing model was conducted according to Inoue K. et al. Arzneim. Forsch 1991, 41(I), 235. The formalin model was conducted according to Hunskaar, S. et al. J. Neurosci Meth. 1985, 14, 69. The tail flick model was conducted according to D'Amour F. E. and Smith D. L. J. Pharmacol. Exp. Ther. 1941, 72, 74. Compound 6 was administered intravenously.

[3] = acetic acid writhing model (in vivo analgesia); conditions: iv; administered intravenously
Method: as §2

[4] = formalin model (in vivo analgesia); conditions: iv; administered intravenously
Method: as §2

rats [5] = experiment: MK-801-induced locomotion and stereotypies, animal model of psychosis; type: in vivo, rat; conditions: male Wistar rats; 1.0, 2.5 and 5.0 mg/kg i.p.; 0.3 mg/kg MK-801 i.p.
Text: The non-competitive NMDA receptor antagonist MK-801 induces stereotypies and hyperactivity in rodents (see: Carlsson, M. and Carlsson, A., J. Neural Transm., 75, 221 (1989)) by interacting with the NMDA receptor-associated ion channel. Phencyclidine, which also interferes with the NMDA receptor, produces psychotic effects in humans similar in many respects to schizophrenia. […] The neuroleptics haloperidol, clozapine and raclopride are able to reverse the behavioral changes induced by MK-801 in rats (Gattaz, W. F., Schummer, B. and Behrens, S., J. Neural Transm., 96, 227 (1994)). Therefore the MK-801-induced activity and stereotypies in rats may represent an appropriate animal model to test the potential efficacy of antipsychotic drugs.
Male Wistar rats (Iffa Credo, St Germain/l'Arbresle, France), weight 250-300 g were housed 2 per cage on a 12 h/12 h light dark cycle (lights on at 7.00 a.m.) at a room temperature of 21±2° C. for a minimum of 5 days before testing. All animals had access to commercial food and tap water ad libitum. […]
On the day of the experiment, rats were treated with either reference drug vehicle, the reference drugs haloperidol or clozapine the test compound vehicle or test compounds. […] Stereotypies, defined as wall-contacts with the snout, and locomotion, defined as turn-rounds of 180°, were assessed during 5 minute periods.

With `CS(=O)(=O)N(CC1CCCNC1)c1ccccc1` (stereo not drawn) [Compound 5, N-phenyl-N-piperidin-3-ylmethyl-methanesulfonamide] the IC50 (NMDA (PCP site)) was 108 nM.
For `CS(=O)(=O)N(C[C@@H]1CCCN(CC2(c3ccc(Cl)cc3)CCC2)C1)c1ccccc1` [Compound 21, N-{1-[1-(4-Chloro-phenyl)-cyclobutylmethyl]-piperidin-3-R-ylmethyl}-N-phenyl-methanesulfon-amide], the IC50 (5-HT Transporter) was 2800 nM and the IC50 (NE Transporter) was 62 nM.
Work on `CS(=O)(=O)N(C[C@@H]1CCCN(CCc2ccccc2)C1)c1ccccc1` [Compound 12, (R)-N-(1-phenethyl-pieridin-3-ylmethyl)-N-phenyl-methanesulfonamide] yielded an IC50 (Sigma-1 (human)) of 550 nM.
For `CS(=O)(=O)N(CC1CCCN(CCc2ccccc2)C1)c1ccccc1` (racemic) [Compound 6, N-(1-phenethyl-pieridin-3-ylmethyl)-N-phenyl-methanesulfonamide], the “activity in the learned helplessness test” value (rats [1]) was “active”, the ED50 [2] was 23 mg/kg and the ED50 [3] was 7.8 mg/kg. For the same compound, the IC50 (Sigma-1 (human)) was 118 nM and the ED50 [4] was 18 mg/kg.
With `CS(=O)(=O)N(C[C@H]1CCCN(CCc2ccccc2)C1)c1ccccc1` [Compound 16, (S)-N-(1-phenethyl-pieridin-3-ylmethyl)-N-phenyl-methanesulfonamide] the IC50 (Sigma-1 (human)) was 22 nM, the MK-801-induced locomotion (rats [5]) was “dose-dependent reduction” and the MK-801-induced stereotypies (rats [5]) was “dose-dependent reduction”.
